# In US20150376570A1, “METHODS AND COMPOSITIONS FOR PRODUCING INDUCED HEPATOCYTES” (GENENTECH, INC., priority 2012, published 2015):
# Experiments:
# BJ fibroblasts = test: Albumin and α-fetoprotein gene expression by qPCR in transfected fibroblasts; assay type: cell-based, human; details: Example 13, 5 consecutive days, 6-well plate
# Text: RPL19 (Hs02338565_gH) was used for endogenous control assays. The ViiA 7 Real Time PCR System (Applied Biosystems) was used to perform and analyze qPCRs. If gene expression was not detectable in a sample, an artificial cycle threshold of 41 was applied to allow for comparison.
# Reprogramming experiments were generally performed as follows. Initial reprogramming experiments used mRNA pools containing six different mRNAs encoding the following six transcription factors: FOXA1, FOXA2, FOXA3, HNF4A, HNF1A, and GATA4. This six transcription factor pool containing mRNAs encoding FOXA1, FOXA2, FOXA3, HNF4A, HNF1A, and GATA4 is herein referred to as 6TF. The 6TF mRNA mixture used in these studies contained the mRNA molecules at a molar ratio of 1:1:1:1:1:1. […]
# Albumin (ALB) and α-fetoprotein (AFP) are genes expressed almost exclusively in cells of hepatocyte lineage. […] After 5 days and 9 days, gene expression levels for albumin and α-fetoprotein in the cells were determined by qPCR using methods as described above.
# BJ fibroblasts were transfected once daily with 6TF mRNA mixture (See Table 6 above for 6TF mRNA cocktail composition) or each of the 5TF mRNA mixtures (described above and shown in Table 6) for 5 consecutive days, as described above. After 5 days, gene expression levels for albumin and AFP in the cells were determined by qPCR using methods as described above. […]
# TLR3 = TLR3 activation on 11TF transfection with or without Poly I:C; assay type: cell-based, human; details: daily transfection and/or daily Poly I:C supplementation
# Method: (See Lee et al., (2012) Cell 151:547-558.) Experiments were performed to examine whether 11TF mRNA mixture could activate TLR3 and to determine whether further activation would increase hepatic induction.
# Experiments were performed to test whether daily supplementation with Poly I:C, a known TLR3 agonist, accompanying 11TF mRNA mixture transfection would further increase expression of albumin and AFP.
Substance,AFP gene expression vs non-transfected control fibroblasts (BJ fibroblasts),albumin gene expression vs non-transfected control fibroblasts (BJ fibroblasts),TLR3 expression above control (TLR3)
HNF1A: mRNA encoding only HNF1A,slightly above,slightly above,
Poly I:C,,,did not activate TLR3
